The text below walks through data of patent US20170174632A1, “4-OXO-1, 4-DIHYDROQUINOLINE-3-CARBOXAMIDE AS SELECTIVE LIGAND FOR CANNABINOID RECEPTOR 2 FOR DIAGNOSIS AND THERAPY” (priority 2014, published 2017).

For series [1], the target named is T1, CB2 (Homo sapiens, UniProt P34972). The series can be described thus: In vitro competitive binding assay, [3H]CP55,940 displacement, hCB2 membranes. The arrangement: purchased PerkinElmer; host or cells: CHO-K1 cells, stably transfected (membrane preparation). To be noted: CHO-K1 membranes with human CB2, 1.4 nM [3H]CP55,940, Cheng-Prusoff, three experiments in triplicates; read-out: KiCB2.
Procedure: The following test was carried out in order to determine the binding affinity of the compounds of formula I towards CB2 and CB1:
Competitive binding reactions were initiated by the addition of a membrane preparation obtained from CHO-K1 cells stably transfected with human CB1 and CB2, respectively, from PerkinElmer (0.5 pig/tube for hCB1 and hCB2) into incubation tubes. As displacer, 1.4 nM [^3H]CP55,940 (PerkinElmer) was used and 6 to 10 concentrations (ranging from 1 pM to 10 μM) of displacing ligand (compound to test) in assay buffer (50 mM TRIS, 1 mM EDTA, 3 mM MgCl2 and 0.05% bovine serum albumin, pH adjusted to 7.4) were added. Nonspecific binding was defined by the presence of 5 μM WIN-55212-2. After incubation at 30° C. for 90 min reactions were terminated by the addition of 3 mL ice cold assay buffer followed by rapid vacuum filtration through a Whatman GF/C filter (pre-soaked for 2 h in 0.05% polyethylenimine in water) and washed twice with 3 mL ice cold assay buffer. The bound activity was counted in a Beckman LS 6500 Liquid Scintillation Counter after adding 3 mL scintillation cocktail (Ultima Gold, Perkin Elmer) and thorough shaking. For each mean value three experiments, each in triplicates, were performed. K, values were determined with the equation from Cheng-Prusoff.

The nature of series [2]: Distribution coefficient (log D), shake-flask method. It is filed as physicochemical. The conditions noted are these: octanol / phosphate buffer pH 7.4, shake-flask, radiotracer. As to the method: The partition coefficient D was determined by the shake-flask method. Octanol saturated with phosphate buffer pH 7.4 (0.5 mL) and phosphate buffer saturated with octanol (0.5 mL) were mixed with radiotracer of interest (^˜3 MBq). The samples were shaken for 15 min and then centrifuged at 5000 g for 5 min. Radioactivity in each phase was measured in a gamma counter (Wizard, PerkinElmer). Log D is expressed as the logarithm of the ratio between the radioactivity concentrations (Bq/mL) of the octanol and the buffer phase.

For series [3], the system named is CB2. As to the kind of experiment: In vitro autoradiography of rat and mouse spleen slices. It is filed as binding. To be noted: 0.2 nM radioligand; for binding to spleen slices, displaced by excess of GW405833: blockade 5 μM GW405833. As to the method: (§1) Rodent (mouse and rat) spleen tissue were embedded in TissueTek and cut into 20 μm-thick sections on a Cryostat HM 505 N (Microm) at −15° C. (blade and block). The slices were absorbed on SuperFrost Plus slides (Menzel) and stored at −80° until used. For the experiment, the slices were thawed on ice for 10 min before conditioning in incubation buffer (50 mM TRIS/HCl, 5% BSA, pH 7.4) on ice for 10 min. The slices were then dripped with 600 μL of radioligand solution (0.2 nM) in incubation buffer and incubated for 15 min at rt in a humid chamber. For blockade conditions, the slices were dripped with 600 μL of a mixture of radioligand and GW405833 (5 μM), a specific CB2 partial agonist. After incubation, the slices were washed with washing buffer (50 mM TRIS/HCl, 1% BSA, 5% EtOH, pH 7.4) for 2 min (2×) and with distilled water for 5 s (2×) on ice. After drying for 10 min at rt, the slices were exposed (30 min) to appropriate phosphor imager plates (Fuji) and the films were scanned in a BAS5000 reader (Fuji).

For series [4] the following is noted: cited from earlier work.
Series [5] addresses T2, CB2 (Rattus norvegicus, UniProt Q9QZN9).
T2 sequence (Q9QZN9 1-360): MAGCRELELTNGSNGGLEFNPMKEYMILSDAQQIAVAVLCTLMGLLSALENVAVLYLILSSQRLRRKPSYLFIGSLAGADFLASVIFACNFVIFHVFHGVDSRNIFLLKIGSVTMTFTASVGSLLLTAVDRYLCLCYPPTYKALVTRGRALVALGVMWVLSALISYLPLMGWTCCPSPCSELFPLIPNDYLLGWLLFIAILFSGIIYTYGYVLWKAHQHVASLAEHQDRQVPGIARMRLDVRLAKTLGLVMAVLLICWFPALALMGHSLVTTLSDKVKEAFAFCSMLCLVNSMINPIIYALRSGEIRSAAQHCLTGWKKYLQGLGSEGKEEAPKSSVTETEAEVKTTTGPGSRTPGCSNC
The arrangement: host or cells: rats in vivo (Mu et al., J. Neurochem. 2013). To be noted: cited from earlier work.

The conditions of series [6]: in vitro transport assay, radiolabelled KD2; cited from earlier work.
Series [7] has as its target T2, CB2. It is filed as in vivo, male Wistar rats. Also noted: from tissue; host or cells: organs of male Wistar rats after iv tracer injection. The conditions noted are these: baseline vs blocking with 1.5 mg/kg GW405833, Wistar rats. As to the method:
For blocking conditions, GW405833 (1.5 mg/kg) was injected 30 min before the experiment (n=3). Animals were sacrificed under anesthesia with isoflurane by decapitation at 15 min post injection (p.i). Organs were collected, weighed and radioactivity measured in a gamma-counter. The accumulated radioactivity in the organs was expressed as part per thousand normalized injected dose per gram of tissue (% o normalized ID/g tissue).

Series [8] addresses T3, CB2 (Mus musculus, UniProt P47936).
T3 construct: from tissue; host or cells: brain of living CD1 male mice (PET)
As to the kind of experiment: LPS mouse model of neuroinflammation, small animal PET brain scans. It is filed as in vivo, CD1 male mice. As to the method:
As a model of neuroinflammation, six CD1 male mice were injected ip (100-150 μl) with 10 mg/kg lipopolysaccharide (LPS), Escherichia coli strain O111:B4, or vehicle (saline) 5 days prior to PET. […] For blocking conditions, 2.0 mg/kg GW405833 was injected sc 30 min before tracer application. Depth of anesthesia was monitored by measuring respiratory frequency (SA Instruments, Inc., Stony Brook, USA). Body temperature was controlled by a rectal probe and kept at 37° C. by a thermocoupler and a heated air stream. Data were reconstructed in user-defined time frames with a voxel size of 0.3875×0.3875×0.775 mm^3 by 2-dimensional-ordered subsets expectation maximization (2D-OSEM). Random and single but no attenuation correction was applied. PET acquisitions were followed by a CT for anatomical orientation. Image files were analyzed with PMOD 3.5 software (PMOD Technologies Ltd., Zurich, Switzerland). Tissue radioactivity was expressed as standardized uptake values (SUV), that is, the decay-corrected radioactivity per cm^3 divided by the injected radioactivity dose per gram of body weight.

The target in series [9] is T1, CB2. As to the kind of experiment: Autoradiography with post mortem spinal cord slices of ALS patients. It is filed as binding. Also noted: from tissue; host or cells: human post mortem ALS spinal cord sections. The conditions noted are these: 0.2 nM tracer, absence or presence of 5 μM GW405833. As to the method:
as §1
To evaluate the potential of our novel CB2 PET tracer in imaging ALS, post mortem spinal cord tissues from ALS patients were investigated in autoradiography experiments. Human post mortem ALS spinal cord tissue samples were embedded in TissueTek and cut into 20 μm-thick sections on a Cryostat. Autoradiography was performed as described in section “Example 5”.

One may read the logD as lipophilicity at a set pH, counting ionised and neutral species. Read a high logD as a more lipophilic compound.

T1 sequence (P34972 whole entry): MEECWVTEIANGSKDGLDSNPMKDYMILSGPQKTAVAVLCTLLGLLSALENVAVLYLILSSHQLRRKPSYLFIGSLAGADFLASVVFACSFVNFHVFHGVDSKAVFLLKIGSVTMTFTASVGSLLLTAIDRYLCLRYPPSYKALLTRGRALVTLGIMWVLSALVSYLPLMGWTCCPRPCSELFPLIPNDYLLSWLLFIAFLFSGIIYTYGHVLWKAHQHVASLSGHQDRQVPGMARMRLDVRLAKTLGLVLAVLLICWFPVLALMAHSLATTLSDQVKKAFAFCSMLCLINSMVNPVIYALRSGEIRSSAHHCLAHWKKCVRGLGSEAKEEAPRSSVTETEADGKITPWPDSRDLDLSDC
T3 sequence (P47936 whole entry): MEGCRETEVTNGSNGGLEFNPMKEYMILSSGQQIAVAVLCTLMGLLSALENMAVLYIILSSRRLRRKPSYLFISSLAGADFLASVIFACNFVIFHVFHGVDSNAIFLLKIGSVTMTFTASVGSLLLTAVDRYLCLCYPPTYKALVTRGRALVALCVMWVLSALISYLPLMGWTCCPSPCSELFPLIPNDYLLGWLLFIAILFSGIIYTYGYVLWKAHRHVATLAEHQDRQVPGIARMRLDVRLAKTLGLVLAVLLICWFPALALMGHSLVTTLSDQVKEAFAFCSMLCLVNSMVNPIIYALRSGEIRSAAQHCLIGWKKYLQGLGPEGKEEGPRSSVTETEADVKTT

Turning to `COc1cccc2c(=O)c(C(=O)NC34CC5CC(CC(C5)C3)C4)cn(CCOCCF)c12` [RS-126, N-(1-adamantyl)-1-(2-(2-fluoroethoxy)ethyl)-8-methoxy-4-oxo-1,4-dihydroquinoline-3-carboxamide], the Ki on CB2 [1] came out at 1.2 ± 0.8 nM.

`COc1cccc2c(=O)c(C(=O)NC34CC5CC(CC(C5)C3)C4)cn(CCOCC[18F])c12` [[^18F]RS-126] yielded a logD in [2] of 1.99. Moreover, in the series with CB2 [3], the “unspecific binding on spleen slices” value is listed as “only little unspecific binding” and the “binding to spleen slices, displaced by excess of GW405833” value is recorded as “high binding to spleen”.

As for `CCCCCn1cc(C(=O)NC23CC4CC(CC(C4)C2)C3)c(=O)c2cccc(OC)c21` [KD2, N-(1-adamantyl)-1-pentyl-8-methoxy-4-oxo-1,4-dihydroquinoline-3-carboxamide], in series [4], the “log D value at pH 7.4” value was 3.29. For the same compound, the Ki on CB2 [1] is 1.7 ± 2 nM. Further, the distribution in brain result on CB2 [5] (in vivo PET experiments) is on record as “relatively low”. On CB2 [5] (rats, radiolabelled KD2), the spleen uptake result is on record as “high spleen uptake”. The “blood-brain barrier (BBB) passage” value in [6] is listed as “moderate”.

On to `CCCCn1cc(C(=O)NC(C)(C)C)c(=O)c2cccc(OC)c21` [RS-006, N-(tert-butyl)-1-butyl-8-methoxy-4-oxo-1,4-dihydroquinoline-3-carboxamide], for which the Ki at CB2 [1] worked out at 8.2 ± 5.5 nM.

On to `CCOCCn1cc(C(=O)NC23CC4CC(CC(F)(C4)C2)C3)c(=O)c2cccc(OC)c21` [RS-030, 1-(2-ethoxyethyl)-N-(3-fluoroadamantyl)-8-methoxy-4-oxo-1,4-dihydroquinoline-3-carboxamide], for which, at CB2 [1], the Ki is 2.1 ± 1.5 nM.

Regarding `CCOCCn1cc(C(=O)NC23CC4CC(CC(C4)C2)C3)c(=O)c2cccc(OCCF)c21` [RS-122, N-(1-adamantanyl)-1-(2-ethoxyethyl)-8-(2-fluoroethoxy)-4-oxo-1,4-dihydroquinoline-3-carboxamide], the Ki on CB2 [1] was 72 ± 102 nM.

In the case of `CCCCn1cc(C(=O)NCC2CC2)c(=O)c2cccc(OC)c21` [RS-008, 1-butyl-N-(cyclopropylmethyl)-8-methoxy-4-oxo-1,4-dihydroquinoline-3-carboxamide], at CB2 [1], the Ki amounted to 78.8 ± 33.1 nM.

As to `CCCCn1cc(C(=O)NC23CC4CC(CC(C4)C2)C3)c(=O)c2cccc(OC)c21` [RS-005, N-(1-adamantyl)-1-butyl-8-methoxy-4-oxo-1,4-dihydroquinoline-3-carboxamide], on CB2 [1], the Ki was determined as 3.3 ± 0.2 nM.

In the case of `CCOCCn1cc(C(=O)NC23CC4CC(CC(O)(C4)C2)C3)c(=O)c2cccc(OC)c21` [RS-028, 1-(2-ethoxyethyl)-N-(3-hydroxyadamantan-1-yl)-8-methoxy-4-oxo-1,4-dihydroquinoline-3-carboxamide], on CB2 [1], the Ki was 0.8 ± 0.8 nM.

Consider `CCOCCn1cc(C(=O)NC23CC4CC(CC(C4)C2)C3)c(=O)c2cccc(OC)c21` [[^11C]RS-016, N-(1-adamantyl)-1-(2-ethoxyethyl)-8-methoxy-4-oxo-1,4-dihydroquinoline-3-carboxamide], for which the “share of total activity in spleen tissue due to specific CB2 binding” value on CB2 [7] came to 78%. For the same compound, the “tracer accumulation in brain regions after LPS treatment compared to vehicle group” value at CB2 [8] (5 days after 10 mg/kg LPS ip, whole brain, cortex, hippocampus, cerebellum) is given as “Increased”. In addition, the “tracer accumulation in brain regions after blockade” value at CB2 [8] (LPS mice, 2 mg/kg GW405833 sc 30 min before tracer) is on record as “reduced in all brain regions”. Also, the “binding to ALS spinal cord tissue” value on CB2 [9] is recorded as “high specific binding”. In [2], the “log D pH 7.4” value is listed as 2.78. For the same compound, in the series on CB2 [3], the “unspecific binding on spleen slices” value is on record as “only little unspecific binding” and the “binding to spleen slices, displaced by excess of GW405833” value was “high binding to spleen”.

As to `CCOCCn1cc(C(=O)NCCc2ccccc2)c(=O)c2cccc(OC)c21` [RS-022, 1-(2-ethoxyethyl)-8-methoxy-4-oxo-N-phenethyl-1,4-dihydroquinoline-3-carboxamide], at CB2 [1], the Ki is 360 ± 240 nM.

`COc1cccc2c(=O)c(C(=O)NC(C)(C)C)cn(CCCF)c12` [RS-011, N-(tert-butyl)-1-(3-fluoropropyl)-8-methoxy-4-oxo-1,4-dihydroquinoline-3-carboxamide]: the Ki at CB2 [1] came out at 750 ± 780 nM.

For `CCCCn1cc(C(=O)NC2CCCC2)c(=O)c2cccc(OC)c21` [RS-007, 1-butyl-N-cyclopentyl-8-methoxy-4-oxo-1,4-dihydroquinoline-3-carboxamide], on CB2 [1], the Ki came out at 19.7 ± 8.8 nM.
